Results from patent US8101171B2, “Modulators of the development of mychorrizal fungi with arbuscules, and uses thereof” (priority 2004, dated 2012).
Marks after values point to notes of the source that are not given here.

Assays:
Gigaspora rosea = assay: Oxygraph measurement of cell respiration of Gigaspora rosea; format: cell-based; conditions: for % stimulation (respiration, average of 3 tests): GR7 0.1 μM final
Method: The control is carried out using 10 μl of methanol/water (v/v) per ml of medium.
Two independent series of experiments were carried out, after 4 hours' stimulation (series 1) and after 5½ hours' stimulation (series 2).
For each, the values recorded correspond to the averages of 3 tests.

Gigaspora rosea spores [1] = assay: Stimulation of hypha branching and elongation of Gigaspora rosea by GR7; format: cell-based
Method: Gigaspora rosea spores are germinated in gelosed medium M for 5 days at 30° C. and in an atmosphere enriched with 2% CO2. 10 μl of test agent solution are then added to the medium by introduction into a well hollowed out in the gelose, starting from a solution having a concentration of test agent varying from 10^−5 to 10^−11 M. The controls receive only the solvent for the test agents (10 μl of 50% methanol) under the same conditions.
The apexes formed are counted after 48 hours' treatment. In addition, the elongation activity is evaluated by measuring the number of cm formed before and after treatment. Two series of experiments, with different concentrations of GR7, were carried out.

[2] = test system: Medicago truncatula / Gigaspora rosea; assay: In vitro mycorrhization of Medicago truncatula by Gigaspora rosea (points of contact between fungus and roots); format: in vivo; conditions: GR7 0.1 μM in medium M, 3 weeks, 8 plants; control (methanol) 2.2; P = 0.02 Mann-Whitney
Method: Measurements of the number of points of contact established between the fungus and the roots during in vitro mycorrhization experiments were carried out. Medicago truncatula plants were cultivated in vitro in the presence of Gigaspora rosea spores, on medium M enriched with GR7.
For the tests, medium M prepared as above is enriched with GR7 to give a final concentration of 0.1 μM. The controls are carried out with medium M to which methanol is added to give a final concentration of 0.1%. The medium is poured into square Petri dishes (100×100). Three control dishes and three test dishes are prepared. The Gigaspora rosea spores are pre-germinated in those dishes (25 per dish) in an oven at 30° C., with 2% CO2, for 6 days. The Medicago truncatula seeds are sterilized with Javel water at 8 degrees chlorimetric for 5 minutes. After rinsing with sterile distilled water, they are germinated on a medium composed of bacteriological agar with 1 μM gibberellin. After 24 hours at 4° C., they are transferred into a chamber at 25° C. for 24 hours. Eighteen plantlets so prepared are then distributed randomly in the six experimental dishes containing the spores in the process of germinating. […]
The number of points of contact established between the fungus and the roots is counted plant by plant after observation under a microscope.

[3] = test system: Glomus intraradices spores; assay: Polarographic measurement of oxygen consumption (cell respiration) of germinating Glomus intraradices spores; format: cell-based; conditions: GR24 0.3 μM final
Method: Polarographic measurements of oxygen consumption were carried out on Glomus intraradices spores in germination, in the presence or absence of GR24.
400 spores in 1 ml of medium M are used per test.
In order to stimulate the spores, there are added to each test 10 μl of a 30 μM solution of GR24 in acetone (1%), namely a final concentration of GR24 of 0.3 μM. The controls receive 10 μl of acetone (1%).
The oxygen consumption is measured using an oxygen electrode, known as a Clark electrode (Hansatech Ltd, Hardwick Industrial, Norfolk, United Kingdom), inserted into a Plexiglass chamber. The oxygen electrode is connected to a recorder calibrated between 0 and 100% with atmospheric oxygen.
The spores are introduced into the chamber, and the temperature is maintained at 30° C. by means of a circulating water bath. The rates of oxygen consumption are read directly from the recorder. The measurements of oxygen consumption are carried out over 15 minutes, after 4 hours' stimulation (series 1) and after 5½ hours' stimulation (series 2).
Two independent series of experiments were carried out. For each, the recorded values correspond to the average of 3 tests.
The increase in oxygen consumption is expressed as a percentage relative to that of the control, treated with acetone.

Gigaspora rosea spores [4] = assay: Stimulation of the branching of the hyphae of Gigaspora rosea by GR24 (newly formed apexes); format: cell-based
From the text: The stimulated branching of the hyphae (appearance of new apexes) is the test currently employed to evaluate the stimulating activity of various effectors on endomycorrhizal fungi of the genus Gigaspora. This phenomenon occurs naturally close to the roots of host plants, as well as under the action of root exudates, and is considered to be a preparatory phase to the establishment of symbiosis (Buée et al., Molecular Plant-Microbe Interaction, 2000, 13:693-698). This increase in branching is the result of stimulation of the fungus metabolism and leads to an increase in the points of contact between the fungus and the roots of the plant. Any increase in the branching of the hyphae of the fungus increases mycorrhization.
Measurements of branching (expressed as the number of apexes appearing after stimulation) of the germinative tubes of Gigaspora rosea were carried out in the presence of various concentrations of GR24.
To that end, Gigaspora rosea spores are germinated in gelosed medium M (medium M containing 0.4% (w/v) Phytagel®—SIGMA, France) for 5 days at 30° C. and in an atmosphere enriched with 2% CO2. 10 μl of test agents (in concentrations varying from 10^−8 to 10^−15 M) in solution in 50% methanol are then added to the medium by introduction into a well hollowed out in the gelose.
The controls receive the solvent for the test molecules (10 μl of 50% methanol) under the same conditions.
48 hours after treatment, the apexes formed above the stimulation zone are counted. Two series of experiments with GR24, at different concentrations, were carried out.

[5] = Series 1: after 4 hours' stimulation
[6] = Series 2: after 5½ hours' stimulation
[7] = GR7 10^−5 M, Series 1, relative to control
[8] = GR7 10^−5 M, Series 2, relative to control
[9] = GR7 10^−7 M, Series 1, relative to control
[10] = GR7 10^−7 M, Series 2, relative to control
[11] = GR7 10^−9 M, Series 1, relative to control
[12] = GR7 10^−9 M, Series 2, relative to control
[13] = GR7 10^−11 M, Series 1, relative to control
[14] = GR7 10^−11 M, Series 2, relative to control

CC1=CC(O/C=C2/C(=O)OC3CC=CC23)OC1=O (stereo not drawn) [GR7]
% stimulation (respiration, average of 3 tests) (Gigaspora rosea; [5]): 24.0%
% stimulation (respiration, average of 3 tests) (Gigaspora rosea; [6]): 33.6%
Activity on the respiration of Gigaspora rosea (Gigaspora rosea; final concentration 0.1 μM, after 5 hours' stimulation): active
cm newly formed/spore (Gigaspora rosea spores [1]; GR7 10^−5 M, Series 1): 4.88 cm
Number of newly formed apexes (Gigaspora rosea spores [1]; GR7 10^−5 M, Series 1, after 48 hours' treatment): 9.3
Branching stimulation ratio (Gigaspora rosea spores [1]; [7]): 5.31
Growth stimulation ratio (Gigaspora rosea spores [1]; [7]): 4.44
cm newly formed/spore (Gigaspora rosea spores [1]; GR7 10^−5 M, Series 2): 6.5 cm
Number of newly formed apexes (Gigaspora rosea spores [1]; GR7 10^−5 M, Series 2, after 48 hours' treatment): 14.25
Branching stimulation ratio (Gigaspora rosea spores [1]; [8]): 6.59
Growth stimulation ratio (Gigaspora rosea spores [1]; [8]): 2.60
cm newly formed/spore (Gigaspora rosea spores [1]; GR7 10^−7 M, Series 1): 4.65 cm
Number of newly formed apexes (Gigaspora rosea spores [1]; GR7 10^−7 M, Series 1, after 48 hours' treatment): 8.75
Branching stimulation ratio (Gigaspora rosea spores [1]; [9]): 5
Growth stimulation ratio (Gigaspora rosea spores [1]; [9]): 4.23
cm newly formed/spore (Gigaspora rosea spores [1]; GR7 10^−7 M, Series 2): 5.09 cm
Number of newly formed apexes (Gigaspora rosea spores [1]; GR7 10^−7 M, Series 2, after 48 hours' treatment): 10.42
Branching stimulation ratio (Gigaspora rosea spores [1]; [10]): 4.82
Growth stimulation ratio (Gigaspora rosea spores [1]; [10]): 2.04
cm newly formed/spore (Gigaspora rosea spores [1]; GR7 10^−9 M, Series 1): 2.62 cm
Number of newly formed apexes (Gigaspora rosea spores [1]; GR7 10^−9 M, Series 1, after 48 hours' treatment): 8
Branching stimulation ratio (Gigaspora rosea spores [1]; [11]): 4.57
Growth stimulation ratio (Gigaspora rosea spores [1]; [11]): 2.38
cm newly formed/spore (Gigaspora rosea spores [1]; GR7 10^−9 M, Series 2): 4.99 cm
Number of newly formed apexes (Gigaspora rosea spores [1]; GR7 10^−9 M, Series 2, after 48 hours' treatment): 6.16
Branching stimulation ratio (Gigaspora rosea spores [1]; [12]): 2.85
Growth stimulation ratio (Gigaspora rosea spores [1]; [12]): 2.00
cm newly formed/spore (Gigaspora rosea spores [1]; GR7 10^−11 M, Series 1): 2.65 cm
Number of newly formed apexes (Gigaspora rosea spores [1]; GR7 10^−11 M, Series 1, after 48 hours' treatment): 5.16
Branching stimulation ratio (Gigaspora rosea spores [1]; [13]): 2.94
Growth stimulation ratio (Gigaspora rosea spores [1]; [13]): 2.41
cm newly formed/spore (Gigaspora rosea spores [1]; GR7 10^−11 M, Series 2): 2.23 cm
Number of newly formed apexes (Gigaspora rosea spores [1]; GR7 10^−11 M, Series 2, after 48 hours' treatment): 2.66
Branching stimulation ratio (Gigaspora rosea spores [1]; [14]): 1.23
Growth stimulation ratio (Gigaspora rosea spores [1]; [14]): 0.89
Activity on branching (number of newly formed apexes) (Gigaspora rosea spores [1]; doses of the nanomolar order): significantly active
Activity on cell elongation (Gigaspora rosea spores [1]; doses of the nanomolar order): significantly active
Average points of contact (fungus-roots, per plant) [2]: 7.75*

CC1=CC(O/C=C2/C(=O)OC3c4ccccc4CC23)OC1=O (stereo not drawn) [GR24]
% stimulation (increase in oxygen consumption relative to control, average of 3 tests) [3, 5]: 29.0%
% stimulation (increase in oxygen consumption relative to control, average of 3 tests) [3, 6]: 76.6%
Apex/spore (Gigaspora rosea spores [4]; GR24 10^−8 M, Series 1, 48 hours after treatment): 16.3
Number of newly formed apexes (Gigaspora rosea spores [4]; GR24 10^−8 M, Series 1, 48 hours after treatment, 4 spores): 65
Stimulation factor (Gigaspora rosea spores [4]; GR24 10^−8 M, Series 1, relative to control): 5.4
Apex/spore (Gigaspora rosea spores [4]; GR24 10^−8 M, Series 2, 48 hours after treatment): 14.0
Number of newly formed apexes (Gigaspora rosea spores [4]; GR24 10^−8 M, Series 2, 48 hours after treatment, 1 spore): 14
Stimulation factor (Gigaspora rosea spores [4]; GR24 10^−8 M, Series 2, relative to control): 4.0
Apex/spore (Gigaspora rosea spores [4]; GR24 10^−10 M, Series 1, 48 hours after treatment): 15.0
Number of newly formed apexes (Gigaspora rosea spores [4]; GR24 10^−10 M, Series 1, 48 hours after treatment, 3 spores): 45
Stimulation factor (Gigaspora rosea spores [4]; GR24 10^−10 M, Series 1, relative to control): 5.0
Apex/spore (Gigaspora rosea spores [4]; GR24 10^−10 M, Series 2, 48 hours after treatment): 13.3
Number of newly formed apexes (Gigaspora rosea spores [4]; GR24 10^−10 M, Series 2, 48 hours after treatment, 3 spores): 40
Stimulation factor (Gigaspora rosea spores [4]; GR24 10^−10 M, Series 2, relative to control): 3.8
Apex/spore (Gigaspora rosea spores [4]; GR24 10^−12 M, Series 1, 48 hours after treatment): 9.0
Number of newly formed apexes (Gigaspora rosea spores [4]; GR24 10^−12 M, Series 1, 48 hours after treatment, 4 spores): 36
Stimulation factor (Gigaspora rosea spores [4]; GR24 10^−12 M, Series 1, relative to control): 3.0
Apex/spore (Gigaspora rosea spores [4]; GR24 10^−12 M, Series 2, 48 hours after treatment): 8.5
Number of newly formed apexes (Gigaspora rosea spores [4]; GR24 10^−12 M, Series 2, 48 hours after treatment, 4 spores): 34
Stimulation factor (Gigaspora rosea spores [4]; GR24 10^−12 M, Series 2, relative to control): 2.4
Apex/spore (Gigaspora rosea spores [4]; GR24 10^−15 M, Series 1, 48 hours after treatment): 3.8
Number of newly formed apexes (Gigaspora rosea spores [4]; GR24 10^−15 M, Series 1, 48 hours after treatment, 4 spores): 15
Stimulation factor (Gigaspora rosea spores [4]; GR24 10^−15 M, Series 1, relative to control): 1.3
Apex/spore (Gigaspora rosea spores [4]; GR24 10^−15 M, Series 2, 48 hours after treatment): 8.5
Number of newly formed apexes (Gigaspora rosea spores [4]; GR24 10^−15 M, Series 2, 48 hours after treatment, 2 spores): 17
Stimulation factor (Gigaspora rosea spores [4]; GR24 10^−15 M, Series 2, relative to control): 2.4
Stimulating effect on branching (Gigaspora rosea spores [4]; doses lower than picomolar): a clear stimulating effect is still observed
Stimulation of branching (factor) (Gigaspora rosea spores [4]; submicromolar doses of GR24): 5
